Active and inactive are the calls of the source. The rule behind the calls is not given here.
Legend:
Mus musculus [1] = assay: Anti-hyperglycemic activity in type-2 diabetes db/db mouse assessed as blood glucose level at 3 to 600 nmol/kg, sc measured up to 48 hrs; format: functional; conditions: dose 3-600 nmol/kg
[2] = AUClast in Sprague-Dawley rat at 1 mg/kg, sc measured up to 48 hrs by LC-MS/MS analysis; format: ADME, organism-based; conditions: in vivo
[3] = AUClast in Sprague-Dawley rat at 1 mg/kg, iv measured up to 48 hrs by LC-MS/MS analysis; format: ADME, organism-based; conditions: in vivo
[4] = AUClast in BALB/c mouse at 0.5 mg/kg, sc measured up to 48 hrs by LC-MS/MS analysis; format: ADME, organism-based; conditions: in vivo
Albumin = Albumin (Homo sapiens, UniProt P02768); assay: Binding affinity to human serum albumin immobilized on AR2G biosensor assessed as dissociation constant incubated for 3 mins by BLI assay; format: ADME
[5] = Selectivity ratio of EC50 for agonist activity at GLP-1R (unknown origin) expressed in HEK293 cells co-expressing CRE-Luc assessed as increase in intracellular cAMP accumulation in presence of 2% HSA to EC50 for agonist activity at GLP-1R (unknown origin) expressed in HEK293 cells co-expressing CRE-Luc assessed as increase in intracellular cAMP accumulation; format: cell-based
Mus musculus [6] = assay: Anti-hyperglycemic activity in type-2 diabetes db/db mouse assessed as regulation of blood glucose level administered subcutaneously measured up to 96 hrs; format: functional, organism-based; conditions: dose 3-600 nmol/kg, route sc
[7] = biological target: T1, Glucagon-like peptide 1 receptor (Homo sapiens, UniProt P43220); assay: Agonist activity at GLP-1R (unknown origin) expressed in HEK293 cells co-expressing CRE-Luc assessed as increase in intracellular cAMP accumulation by luciferase based assay; format: functional, cell-based; conditions: read-out: EC50
[8] = Clearance in Sprague-Dawley rat at 1 mg/kg, iv measured up to 48 hrs by LC-MS/MS analysis; format: ADME, organism-based; conditions: in vivo
Mus musculus [9] = assay: Anti-hyperglycemic activity in well-fed type-2 diabetes db/db mouse assessed as blood glucose level at 100 nmol/kg, sc administered on every 48 hrs; format: functional
[10] = AUClast in BALB/c mouse at 0.5 mg/kg, iv measured up to 48 hrs by LC-MS/MS analysis; format: ADME, organism-based; conditions: in vivo
Dipeptidyl peptidase 4 [11] = biological target: T2, Dipeptidyl peptidase 4 (Rattus norvegicus, UniProt P14740); assay: Stability in Sprague-Dawley rat plasma assessed as DPP4-mediated drug degradation by measuring Lys(CBB)Gly metabolite formation measured after 96 hrs by mass spectrometry; format: ADME, cell-free
[12] = Apparent volume of distribution in BALB/c mouse at 0.5 mg/kg, iv measured up to 48 hrs by LC-MS/MS analysis; format: ADME, organism-based; conditions: in vivo, read-out: Vz
[13] = MRT in BALB/c mouse at 0.5 mg/kg, sc measured up to 48 hrs by LC-MS/MS analysis; format: ADME, organism-based; conditions: in vivo
[14] = Half life in BALB/c mouse at 0.5 mg/kg, sc measured up to 48 hrs by LC-MS/MS analysis; format: ADME, organism-based; conditions: in vivo
[15] = Half life in Sprague-Dawley rat at 1 mg/kg, sc measured up to 48 hrs by LC-MS/MS analysis; format: ADME, organism-based; conditions: in vivo
[16] = Clearance in BALB/c mouse at 0.5 mg/kg, iv measured up to 48 hrs by LC-MS/MS analysis; format: ADME, organism-based; conditions: in vivo
Mus musculus [17] = assay: Anti-hyperglycemic activity in type-2 diabetes db/db mouse assessed as reduction in food intake at 100 nmol/kg, sc measured for 48 hrs; format: functional, organism-based
Mus musculus [18] = assay: Anti-hyperglycemic activity in 16 hr-fasted type-2 diabetes db/db mouse at 100 nmol/kg, sc pretreated for 0.5 hrs followed by glucose administration measured for 2 hrs by OGTT method; format: functional, organism-based; conditions: time 2.5 hrs
[19] = biological target: T1, Glucagon-like peptide 1 receptor; assay: Agonist activity at GLP-1R (unknown origin) expressed in HEK293 cells co-expressing CRE-Luc assessed as increase in intracellular cAMP accumulation in presence of 2% HSA by luciferase based assay; format: functional, cell-based; conditions: read-out: EC50
[20] = Tmax in BALB/c mouse at 0.5 mg/kg, sc measured up to 48 hrs by LC-MS/MS analysis; format: ADME, organism-based; conditions: in vivo
Mus musculus [21] = assay: Anti-hyperglycemic activity in 16 hr-fasted type-2 diabetes db/db mouse assessed as homeostasis of blood glucose level at 100 nmol/kg, sc pretreated for 0.5 hrs followed by glucose administration measured for 2 hrs; format: functional, organism-based; conditions: time 2.5 hrs
[22] = Stability in Sprague-Dawley rat plasma assessed as drug degradation by measuring half life measured after 96 hrs by RP-HPLC analysis; format: ADME, cell-free
[23] = biological target: T1, Glucagon-like peptide 1 receptor; assay: Agonist activity at GLP-1R (unknown origin) expressed in HEK293 cells co-expressing CRE-Luc assessed as increase in intracellular cAMP accumulation in presence of 10% FBS by luciferase based assay; format: functional, cell-based; conditions: read-out: EC50
Mus musculus [24] = assay: Anti-hyperglycemic activity in type-2 diabetes db/db mouse assessed as regulation of blood glucose level at 3 to 600 nmol/kg, sc measured up to 96 hrs; format: functional, organism-based
[25] = Stability in Sprague-Dawley rat plasma assessed as compound remaining measured after 96 hrs by RP-HPLC analysis; format: ADME, cell-free; conditions: read-out: Stability
[26] = Apparent volume of distribution in Sprague-Dawley rat at 1 mg/kg, iv measured up to 48 hrs by LC-MS/MS analysis; format: ADME, organism-based; conditions: in vivo, read-out: Vz
[27] = Tmax in Sprague-Dawley rat at 1 mg/kg, sc measured up to 48 hrs by LC-MS/MS analysis; format: ADME, organism-based; conditions: in vivo
[28] = MRT in Sprague-Dawley rat at 1 mg/kg, sc measured up to 48 hrs by LC-MS/MS analysis; format: ADME, organism-based; conditions: in vivo
[29] = Binding affinity to collagen type I (unknown origin) immobilized on AR2G biosensor assessed as dissociation constant incubated for 3 mins by BLI assay; design: species or system Homo sapiens
Dipeptidyl peptidase 4 [30] = biological target: T2, Dipeptidyl peptidase 4; assay: Stability in Sprague-Dawley rat plasma assessed as DPP4-mediated drug degradation by measuring Lys(CBB) metabolite formation measured after 96 hrs by mass spectrometry; format: ADME, cell-free

T1 sequence (P43220 whole entry): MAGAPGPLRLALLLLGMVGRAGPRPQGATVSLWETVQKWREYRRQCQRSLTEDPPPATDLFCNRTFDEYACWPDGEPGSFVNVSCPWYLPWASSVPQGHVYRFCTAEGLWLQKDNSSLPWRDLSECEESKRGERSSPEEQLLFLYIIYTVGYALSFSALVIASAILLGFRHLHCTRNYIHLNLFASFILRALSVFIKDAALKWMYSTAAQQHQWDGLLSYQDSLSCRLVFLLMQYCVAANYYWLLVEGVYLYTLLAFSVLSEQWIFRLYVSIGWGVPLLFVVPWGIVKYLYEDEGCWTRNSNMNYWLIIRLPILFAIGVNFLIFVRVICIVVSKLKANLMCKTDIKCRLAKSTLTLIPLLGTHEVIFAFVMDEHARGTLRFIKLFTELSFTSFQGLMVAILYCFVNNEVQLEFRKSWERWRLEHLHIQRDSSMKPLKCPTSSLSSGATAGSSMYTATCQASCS
T2 sequence (P14740 whole entry): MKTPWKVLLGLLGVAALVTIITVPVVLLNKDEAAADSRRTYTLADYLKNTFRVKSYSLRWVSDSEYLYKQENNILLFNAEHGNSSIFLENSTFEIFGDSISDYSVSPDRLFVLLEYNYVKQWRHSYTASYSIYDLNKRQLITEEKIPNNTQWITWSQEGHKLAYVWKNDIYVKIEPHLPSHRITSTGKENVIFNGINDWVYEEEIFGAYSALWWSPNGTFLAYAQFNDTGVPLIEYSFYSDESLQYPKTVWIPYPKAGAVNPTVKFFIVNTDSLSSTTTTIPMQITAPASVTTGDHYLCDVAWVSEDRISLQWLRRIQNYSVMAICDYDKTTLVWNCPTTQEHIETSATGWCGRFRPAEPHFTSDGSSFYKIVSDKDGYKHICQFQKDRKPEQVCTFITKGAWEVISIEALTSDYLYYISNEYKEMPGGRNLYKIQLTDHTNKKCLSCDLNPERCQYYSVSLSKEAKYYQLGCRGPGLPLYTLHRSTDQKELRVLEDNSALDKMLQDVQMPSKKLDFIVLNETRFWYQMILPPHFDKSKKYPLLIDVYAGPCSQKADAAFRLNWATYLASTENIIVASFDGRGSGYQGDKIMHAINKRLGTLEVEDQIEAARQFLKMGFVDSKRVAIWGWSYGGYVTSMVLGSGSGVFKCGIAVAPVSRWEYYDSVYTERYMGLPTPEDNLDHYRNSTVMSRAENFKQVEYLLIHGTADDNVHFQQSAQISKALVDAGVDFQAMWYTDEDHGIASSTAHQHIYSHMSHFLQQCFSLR
Sequence of Albumin (P02768 whole entry): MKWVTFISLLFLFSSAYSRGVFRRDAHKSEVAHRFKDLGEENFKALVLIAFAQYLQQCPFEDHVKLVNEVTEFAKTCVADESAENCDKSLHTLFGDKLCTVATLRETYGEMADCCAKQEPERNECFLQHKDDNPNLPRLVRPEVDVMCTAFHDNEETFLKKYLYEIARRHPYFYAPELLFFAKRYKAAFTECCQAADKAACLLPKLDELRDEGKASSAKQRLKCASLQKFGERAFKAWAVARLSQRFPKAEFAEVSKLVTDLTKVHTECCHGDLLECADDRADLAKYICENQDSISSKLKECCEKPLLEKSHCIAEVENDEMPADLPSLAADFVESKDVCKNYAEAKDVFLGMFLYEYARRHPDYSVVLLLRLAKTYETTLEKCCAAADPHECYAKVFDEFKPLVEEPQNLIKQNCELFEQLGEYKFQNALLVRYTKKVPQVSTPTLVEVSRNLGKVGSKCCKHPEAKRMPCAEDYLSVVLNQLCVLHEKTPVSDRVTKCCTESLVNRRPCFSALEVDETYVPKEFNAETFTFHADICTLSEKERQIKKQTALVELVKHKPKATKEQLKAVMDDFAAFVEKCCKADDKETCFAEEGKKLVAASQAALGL

Q: Which results are given for `CCOc1ccc(Nc2ccc(/C(=C3C=C/C(=[N+](\CC)Cc4cccc(S(=O)(=O)[O-])c4)C=C\3C)c3ccc(N(CC)Cc4cccc(S(=O)(=O)NCCCCCC(=O)NCCOCCOCCOCCOCCOCCOCCOCCOCCC(=O)NCCCC[C@H](NC(=O)[C@@H](NC(=O)[C@H](CC(C)C)NC(=O)[C@H](Cc5c[nH]c6ccccc56)NC(=O)[C@H](C)NC(=O)[C@@H](NC(=O)[C@H](Cc5ccccc5)NC(=O)[C@H](CCC(=O)O)NC(=O)[C@H](CCCNC(=N)N)NC(=O)[C@H](C)NC(=O)[C@H](C)NC(=O)[C@H](CCC(N)=O)NC(=O)CNC(=O)[C@H](CCC(=O)O)NC(=O)[C@H](CC(C)C)NC(=O)[C@H](Cc5ccc(O)cc5)NC(=O)[C@H](CO)NC(=O)[C@H](CO)NC(=O)[C@@H](NC(=O)[C@H](CC(=O)O)NC(=O)[C@H](CO)NC(=O)[C@@H](NC(=O)[C@H](Cc5ccccc5)NC(=O)[C@@H](NC(=O)CNC(=O)[C@H](CCC(=O)O)NC(=O)CNC(=O)[C@@H](N)Cc5c[nH]cn5)[C@@H](C)O)[C@@H](C)O)C(C)C)[C@@H](C)CC)C(C)C)C(=O)NCC(=O)N[C@@H](CCCNC(=N)N)C(N)=O)c4)cc3C)cc2)cc1`?
A: Activity (Mus musculus [1]): <10 mM; AUC [2]: 28.81 h/µg/mL; AUC [3]: 67.28 h/µg/mL; AUC [4]: 123.884 h/µg/mL; Kd (Albumin): 520000 pM; Ratio EC50 [5]: 5.38; Activity (Mus musculus [6]): Dose-dependent-effect; EC50 [7]: 0.37 pM; clearance [8]: 0.25 mL/min/kg; Activity (Mus musculus [9]): <10 mM; AUC [10]: 111.886 h/µg/mL; Drug metabolism (Dipeptidyl peptidase 4 [11]): metabolite_detected; Vd [12]: 0.056 L/kg; MRT [13]: 18.1 h; half-life [14]: 32 h; half-life [15]: 32 h; clearance [16]: 0.0667 mL/min/kg; Activity (Mus musculus [17]): Active; Activity (Mus musculus [18]): Active; EC50 [19]: 1.99 pM; Tmax [20]: 12 h; Activity (Mus musculus [21]): Active; half-life [22]: 24 h; EC50 [23]: 0.21 pM; EC50 (Mus musculus [24]): 30 nmol/kg; remaining at 96 h [25]: 40%; Vd [26]: 0.15 L/kg; Tmax [27]: 12 h; MRT [28]: 18 h; Kd [29]: 390000 pM; Drug metabolism (Dipeptidyl peptidase 4 [30]): metabolite_detected

— ChEMBL document CHEMBL6109125, “A New Protractor Potentiates Glucagon-Like Peptide 1 with Slow-Release Depot and Long-Term Action” (J Med Chem, 2025)
